# Data from paper PMC4853476 (Nature Communications, 2016).
# Like-named read-outs stand apart in the source and are kept apart here.
# Assays:
# human PRC2 complex = human PRC2 complex (Homo sapiens, UniProt O75530+Q15022+Q15910, DEL183-210)
# Method: All anisotropy titrations were performed at 20 °C using a Jasco FP-8500 fluorimeter.
# affinity of PRC2 for H3 peptide.
# (a) Direct titration of PRC2 into FAM-K27M (0.4 μM) in the presence
# absence of co-factor (white circles).
# (320 μM) with unlabelled peptides.
# titration of PRC2 into FAM-
# The titration in the absence of repressive
# PRC2 [1] = conditions: repressive peptides; cited from earlier work
# PRC2 [2] = conditions: kinetic studies, cited from earlier work
# From the text: In their recent analysis, Brown et al.[19] quantified the inhibitory affect of a series of peptide constructs varying in the side chain (both natural and synthetic) at position 27.
# [3] = target: human PRC2 core complex (EZH2^N 1-385 lacking 183-210, EZH2^C 421-746, EED 77-441, SUZ12 535-685) (human) (UniProt Q15910); assay: fluorescence polarisation; anisotropy displacement titration: unlabelled peptide added to FAM-H3K27M (0.4 μM) and PRC2 ([…]) with SAM (320 μM); 20 °C; 25 mM Hepes pH 7.25, 25 mM NaCl, 1 mM TCEP, 0.01% Brij-35
# human PRC2 core complex (EZH2^N 1-385 lacking 183-210, EZH2^C 421-746, EED 77-441, SUZ12 535-685) (human), sequence (Q15910 other isoform, or with tags, fused parts or gaps, chain 1 of 4): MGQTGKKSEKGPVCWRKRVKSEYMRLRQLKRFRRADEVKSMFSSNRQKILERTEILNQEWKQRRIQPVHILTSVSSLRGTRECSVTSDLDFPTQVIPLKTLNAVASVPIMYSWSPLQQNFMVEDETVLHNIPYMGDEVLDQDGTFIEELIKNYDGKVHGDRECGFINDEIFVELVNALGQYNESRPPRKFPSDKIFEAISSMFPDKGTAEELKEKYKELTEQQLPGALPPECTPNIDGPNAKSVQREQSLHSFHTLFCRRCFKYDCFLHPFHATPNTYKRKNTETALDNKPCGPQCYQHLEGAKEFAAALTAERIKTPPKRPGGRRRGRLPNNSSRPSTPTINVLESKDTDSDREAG
# human PRC2 core complex (EZH2^N 1-385 lacking 183-210, EZH2^C 421-746, EED 77-441, SUZ12 535-685) (human), sequence (Q15910 421-746, chain 2 of 4): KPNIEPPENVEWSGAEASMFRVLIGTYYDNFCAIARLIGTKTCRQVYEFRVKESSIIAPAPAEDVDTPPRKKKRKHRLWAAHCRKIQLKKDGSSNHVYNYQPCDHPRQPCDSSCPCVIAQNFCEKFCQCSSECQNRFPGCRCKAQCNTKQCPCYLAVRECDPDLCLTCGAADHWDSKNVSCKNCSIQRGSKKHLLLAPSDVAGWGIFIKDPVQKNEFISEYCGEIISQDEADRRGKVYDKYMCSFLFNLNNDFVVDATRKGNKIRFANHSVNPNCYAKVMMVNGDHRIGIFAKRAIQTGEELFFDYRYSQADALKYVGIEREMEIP
# human PRC2 core complex (EZH2^N 1-385 lacking 183-210, EZH2^C 421-746, EED 77-441, SUZ12 535-685) (human), sequence (O75530 77-441, chain 3 of 4, further chain): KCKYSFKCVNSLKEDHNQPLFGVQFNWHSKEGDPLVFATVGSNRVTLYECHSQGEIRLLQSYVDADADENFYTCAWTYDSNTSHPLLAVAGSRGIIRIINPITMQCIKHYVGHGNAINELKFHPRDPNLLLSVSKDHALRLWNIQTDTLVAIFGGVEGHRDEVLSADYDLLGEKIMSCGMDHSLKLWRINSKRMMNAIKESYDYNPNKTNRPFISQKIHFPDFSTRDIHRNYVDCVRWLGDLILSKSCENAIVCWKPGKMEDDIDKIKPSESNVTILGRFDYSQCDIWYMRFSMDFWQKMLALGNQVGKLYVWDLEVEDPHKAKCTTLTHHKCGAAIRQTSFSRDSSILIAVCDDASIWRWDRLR
# human PRC2 core complex (EZH2^N 1-385 lacking 183-210, EZH2^C 421-746, EED 77-441, SUZ12 535-685) (human), sequence (Q15022 535-685, chain 4 of 4, further chain): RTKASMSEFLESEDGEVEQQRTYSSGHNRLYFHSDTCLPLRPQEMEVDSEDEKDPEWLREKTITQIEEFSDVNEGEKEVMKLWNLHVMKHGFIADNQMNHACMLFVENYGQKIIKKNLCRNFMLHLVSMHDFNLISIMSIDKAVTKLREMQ
# human PRC2 complex, sequence (Q15910 421-746 limits assumed, stated change not applied): as the sequence (Q15910 421-746, chain 2 of 4) above
# human PRC2 complex, sequence (Q15910 with tags, fused parts or gaps DEL183-210 limits assumed): as the sequence (Q15910 other isoform, or with tags, fused parts or gaps, chain 1 of 4) above
# human PRC2 complex, sequence (O75530 77-441 partner limits assumed): as the sequence (O75530 77-441, chain 3 of 4, further chain) above
# human PRC2 complex, sequence (Q15022 535-685 partner limits assumed): as the sequence (Q15022 535-685, chain 4 of 4, further chain) above
compound,measurement,setting,value
Nc1ncnc2c1ncn2[C@@H]1O[C@H](CSCC[C@H](N)C(=O)O)[C@@H](O)[C@H]1O [SAH],binding of cofactor product,human PRC2 complex; relative to SAM,binds much weaker
"C[S+](CC[C@H](N)C(=O)[O-])C[C@H]1O[C@@H](n2cnc3c(N)ncnc32)[C@H](O)[C@@H]1O (stereo partly drawn) [SAM, S-adenosylmethionine]",Kd,human PRC2 complex,47 ± 9 µM
"Jarid2 K116me3: trimethylated K116 Jarid2 peptide (residues 111–121), binds EED and activates PRC2",activation of PRC2,PRC2 [1],strongest activation of PRC2
Norleucine,relative inhibition of PRC2 by residue at position 27 (words),PRC2 [2],even better inhibitor than methionine
same,relative inhibition of PRC2 by residue at position 27 (words),PRC2 [2]; listed as norleucine,strong inhibition
unlabelled H3R26AK27M peptide,Kd,[3],73 µM
